Results taken from patent US9688661B2, “Substituted pyrroles active as kinases inhibitors” (NERVIANO MEDICAL SCIENCES S.R.L., priority 2012, dated 2017).

Columns and labels:
[1] = system: JAK2 dependent human megakaryoblastic leukemia cell line SET-2; experiment: Cell proliferation assay, SET-2; format: cell-based; conditions: SET-2 cells, 72 hours, CellTiter-Glo
[2] = system: IL-2 dependent human T lymphoma cell line DERL-7; experiment: Cell proliferation assay, DERL-7; format: cell-based; conditions: DERL7; DERL-7 cells, 20 ng/ml human IL-2, 72 hours, CellTiter-Glo
Protocol: the JAK2 dependent human megakaryoblastic leukemia cell line SET-2 (DSMZ, Braunschweig GERMANY), and JAK2 independent human chronic myelogenous leukaemia cell line K562 (ECACC, Wiltshire, UK) were cultured in RPMI-1640 medium-Glutamax (Gibco BRL, Gaithesburg, Md., USA), supplemented with 10% fetal bovine serum (FBS) at 37° C. and 5% CO2. The IL-2 dependent human T lymphoma cell line DERL-7 (DSMZ, Braunschweig GERMANY) was used to test the activity of compounds in cells on JAK1/JAK3 kinases activated by IL-2. The DERL-7 cell lines were cultured in RPMI-1640 medium-Glutamax (Gibco BRL, Gaithesburg, Md., USA), supplemented with 20% FBS and 20 ng/ml of human IL-2 (Sigma-Aldrich, St. Louis, Mo., USA).
Approximately 5×10^3 cells were plated into 384 microtiter plate wells in 50 μL of growth media with different concentrations of inhibitors. The cells were incubated at 37° C. and 5% CO2 for 72 hours, than the plates were processed using CellTiter-Glo assay (Promega, Madison, Wis., USA) following the manufacturer's instruction. Briefly 25 μL/well reagent solution are added to each wells and after 5 minutes shacking micro-plates are read by Envision luminometer (PerkinElmer, Waltham, Mass., USA).
(§1) Data are analyzed by Symix Assay Explorer software (Symix Technologies Inc.) that provides sigmoidal fitting algorithm of the 8 points dilutions curves for IC50 determination.

TYK2 kinase domain = TYK2 kinase domain (Homo sapiens (Human), UniProt P29597); experiment: Biochemical assay for inhibitors of JAK kinase activity, TYK2; conditions: TYK2 kinase domain 3 nM, 31 μM ATP
Sequence of TYK2 kinase domain (P29597 833-1187): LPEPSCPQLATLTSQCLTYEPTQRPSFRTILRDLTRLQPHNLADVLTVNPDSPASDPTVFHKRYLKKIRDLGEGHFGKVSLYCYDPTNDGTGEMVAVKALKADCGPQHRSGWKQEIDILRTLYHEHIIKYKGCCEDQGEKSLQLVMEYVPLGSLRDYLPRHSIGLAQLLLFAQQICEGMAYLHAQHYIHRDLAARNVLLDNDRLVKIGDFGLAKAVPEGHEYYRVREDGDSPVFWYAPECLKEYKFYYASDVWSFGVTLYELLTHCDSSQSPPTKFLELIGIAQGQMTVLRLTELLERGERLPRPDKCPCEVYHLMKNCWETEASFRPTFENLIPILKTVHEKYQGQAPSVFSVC
Protocol: (§2) Specific JAK2, JAK1 or JAK3 peptide substrates are trans-phosphorylated by JAK kinases in the presence of ATP traced with 33P-γ-ATP. At the end of the phosphorylation reaction, the unreacted ATP, cold and radioactive, is captured by an excess of dowex ion exchange resin that eventually settles by gravity to the bottom of the reaction plate. The supernatant is subsequently withdrawn and transferred into a counting plate that is then evaluated by β-counting.
(§3) 500 g of wet resin (SIGMA, custom prepared resin DOWEX 1×8 200-400 mesh, 2.5 Kg) are weighed out and diluted 2 to 1 in 150 mM sodium formate, pH 3.00. The resin is allowed to settle down overnight and then the supernatant is discarded. After three washes as above over a couple of days, the resin is allowed to settle and two volumes (with respect to the resin volume) of 150 mM sodium formate buffer are added.
(§4) Kinase buffer was composed of 50 mM HEPES pH 7.5 containing 10 mM MgCl2, 2.5 mM DTT, 10 μM Na3VO4 and 0.2 mg/mL BSA.
(§5) The peptidic substrate was purchased from American Peptide Company (Sunnyvale, Calif.).
as §1

JAK2 kinase domain = JAK2 kinase domain (Homo sapiens (Human), UniProt O60674); experiment: Biochemical assay for inhibitors of JAK kinase activity, JAK2; conditions: JAK2 kinase domain 1 nM, 60 μM ATP
Sequence of JAK2 kinase domain (O60674 849-1124): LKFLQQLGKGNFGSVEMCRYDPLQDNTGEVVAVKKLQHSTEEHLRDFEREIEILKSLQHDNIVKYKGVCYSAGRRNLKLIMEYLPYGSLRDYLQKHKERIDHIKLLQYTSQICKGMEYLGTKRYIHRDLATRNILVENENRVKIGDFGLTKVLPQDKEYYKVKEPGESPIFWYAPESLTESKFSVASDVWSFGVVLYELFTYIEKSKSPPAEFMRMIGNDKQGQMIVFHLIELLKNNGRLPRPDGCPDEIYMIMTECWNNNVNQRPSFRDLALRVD
Protocol: as §2, §3, §4, §5, §1

[3] = system: JAK2 independent human chronic myelogenous leukaemia cell line K562; experiment: Cell proliferation assay, K562; format: cell-based; conditions: K562 cells, 72 hours, CellTiter-Glo, read-out: IC50 K-562
JAK1 kinase domain = JAK1 kinase domain (Homo sapiens (Human), UniProt P23458); experiment: Biochemical assay for inhibitors of JAK kinase activity, JAK1; conditions: preactivated JAK1 kinase domain 2.5 nM, 100 μM ATP
Sequence of JAK1 kinase domain (P23458 861-1152): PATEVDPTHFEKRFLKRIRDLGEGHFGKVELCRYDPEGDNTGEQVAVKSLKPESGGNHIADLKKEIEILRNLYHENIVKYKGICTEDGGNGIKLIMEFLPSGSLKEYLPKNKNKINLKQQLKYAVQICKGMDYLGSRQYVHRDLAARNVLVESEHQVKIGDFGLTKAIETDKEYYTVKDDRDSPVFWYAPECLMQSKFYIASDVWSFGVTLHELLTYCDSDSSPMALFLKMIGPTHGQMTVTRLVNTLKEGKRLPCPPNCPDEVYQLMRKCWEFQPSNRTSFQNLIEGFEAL
Protocol: as §2, §3, §4
Assays were performed with the JAK1 kinase domain (residues 861-1152 of the 1154 amino acid long full-length sequence, accession number P23458 of UniProtKB/Swiss-Prot database).
The JAK1 kinase domain was preactivated with ATP for 1 h at 28° C. in order to obtain a linear kinetic.
as §5, §1

Row | Structure (SMILES) | IC50 [1] [nM] | IC50 [2] [nM] | IC50 (TYK2 kinase domain) [nM] | IC50 (JAK2 kinase domain) [nM] | IC50 [3] [nM] | IC50 (JAK1 kinase domain) [nM]
1 | Cc1ccc(Cl)cc1-c1cn(-c2ncnc3[nH]ccc23)cc1C(N)=O [compd 270, 4-(5-Chloro-2-methylphenyl)-1-(7H-pyrrolo[2,3-d]pyrimidin-4-yl)-1H-pyrrole-3-carboxamide] | 550 | 1790 | 43 | 17 | 1890 | 85
2 | CCc1ccc(C(F)(F)F)cc1-c1[nH]c(-c2cc(N)ncn2)cc1C(=O)NC [compd 321, 5-(6-Aminopyrimidin-4-yl)-2-[2-ethyl-5-(trifluoromethyl)phenyl]-N-methyl-1H-pyrrole-3-carboxamide] | 250 | 548 | 38 | 3 | > 10000 | 9

Molecules with a lower IC50 [1], results first:

Row | IC50 [1] [nM] | IC50 [2] [nM] | IC50 (TYK2 kinase domain) [nM] | IC50 (JAK2 kinase domain) [nM] | IC50 [3] [nM] | IC50 (JAK1 kinase domain) [nM] | Structure (SMILES)
3 | 220 | 510 | 22 | 3 | > 10000 | 6 | CCc1ccc(C(F)(F)F)cc1-c1[nH]c(-c2ncnc3[nH]ccc23)cc1C(=O)NC [compd 323, 2-[2-Ethyl-5-(trifluoromethyl)phenyl]-N-methyl-5-(7H-pyrrolo[2,3-d]pyrimidin-4-yl)-1H-pyrrole-3-carboxamide]
4 | 130 | 469 | 10 | 1 | 6610 | 1 | CCc1ccc(Cl)cc1-c1[nH]c(-c2cc(NC)ncn2)cc1C(=O)NC [compd 302, 2-(5-Chloro-2-ethylphenyl)-N-methyl-5-[6-(methylamino)pyrimidin-4-yl]-1H-pyrrole-3-carboxamide]
5 | 60 | 146 | 3 | 1 | 7230 | 4 | NC(=O)c1cc(-c2ncnc3[nH]ccc23)cn1-c1cc(C(F)(F)F)ccc1Cl [compd 244, 1-[2-Chloro-5-(trifluoromethyl)phenyl]-4-(7H-pyrrolo[2,3-d]pyrimidin-4-yl)-1H-pyrrole-2-carboxamide]
